Experimental data as given in the supplement of paper PMC10307832.

Columns and labels:
Test in all cases: relative viability (nuclei count vs DMSO), 5 days (fraction); higher = more cells survive
[1] = compound: CCC1=CN=CN=C1N2CCN(CC2)CC3=NC4=C(N3)C=C(C=C4)C(F)(F)F + Cc1cc(Nc2cc(N3CCN(C)CC3)nc(Sc3ccc(NC(=O)C4CC4)cc3)n2)n[nH]1 [Tozasertib] (partner 0.1 µM)
Summary of the method: (§1)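 Dosing by pin tool came one day after lung cancer cell lines were seeded in 1536-well plates, using either one drug or a fixed anchor-drug dose plus five library-drug doses (not always all listed) in √10 steps. After 5 days, nuclei were counted on 4× images. Relative viability is treated-well nuclei count divided by vehicle-well nuclei count, and values are medians of duplicate plates.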

[2] = compound: N=C1NC(=O)/C(=C/c2ccc(O)cc2)S1 [Mirin] + COc1cc2c(Oc3ccc(NC(=O)C4(C(=O)Nc5ccc(F)cc5)CC4)cc3F)ccnc2cc1OCCCN1CCOCC1 [Foretinib] (partner 0.25 µM)
Summary of the method: as §1

[3] = compound: CCC1=CN=CN=C1N2CCN(CC2)CC3=NC4=C(N3)C=C(C=C4)C(F)(F)F + CC(=O)Nc1cccc(-n2c(=O)n(C3CC3)c(=O)c3c(Nc4ccc(I)cc4F)n(C)c(=O)c(C)c32)c1 [Trametinib] (partner 0.02 µM)
Summary of the method: as §1

[4] = compound: CCC1=CN=CN=C1N2CCN(CC2)CC3=NC4=C(N3)C=C(C=C4)C(F)(F)F + COc1cc2c(Oc3ccc(NC(=O)C4(C(=O)Nc5ccc(F)cc5)CC4)cc3F)ccnc2cc1OCCCN1CCOCC1 [Foretinib] (partner 0.25 µM)
Summary of the method: as §1

Cell Line | relative viability ([1]; first compound 0.04 µM) | relative viability ([1]; first compound 0.1265 µM) | relative viability ([1]; first compound 0.4 µM) | relative viability ([1]; first compound 1.265 µM) | relative viability ([1]; first compound 4 µM) | relative viability ([2]; first compound 0.25 µM) | relative viability ([2]; first compound 0.7906 µM) | relative viability ([2]; first compound 2.5 µM) | relative viability ([2]; first compound 7.906 µM) | relative viability ([2]; first compound 25 µM) | relative viability ([3]; first compound 0.04 µM) | relative viability ([3]; first compound 0.1265 µM) | relative viability ([3]; first compound 0.4 µM) | relative viability ([3]; first compound 1.265 µM) | relative viability ([3]; first compound 4 µM) | relative viability ([4]; first compound 0.04 µM) | relative viability ([4]; first compound 0.1265 µM) | relative viability ([4]; first compound 0.4 µM) | relative viability ([4]; first compound 1.265 µM) | relative viability ([4]; first compound 4 µM)
NCI-H322M | 0.485 | 0.446 | 0.485 | 0.469 | 0.488 | 1.06 | 1.02 | 1.07 | 0.934 | 1.05 | 0.483 | 0.611 | 0.537 | 0.458 | 0.62 | 1.08 | 0.907 | 0.939 | 0.953 | 0.925
NCI-H1395 | 0.733 | 0.807 | 0.715 | 0.698 | 0.756 | 0.908 | 0.994 | 1.03 | 0.977 | 1.14 | 1.05 | 0.993 | 1.11 |  | 0.96 | 0.847 | 0.881 | 1.01 | 0.986 | 0.94
NCI-H650 | 0.78 | 0.76 | 0.765 | 0.616 | 0.753 | 0.834 | 1.07 | 1.06 |  | 1.13 | 0.95 | 0.996 | 0.985 | 0.814 | 0.856 | 1.16 | 1.09 | 1.05 | 0.934 | 1.03
NCI-H661 | 0.371 | 0.348 | 0.362 | 0.322 | 0.366 | 1.05 | 1.06 | 1.02 | 1.07 | 0.975 | 0.638 | 0.591 | 0.508 | 0.471 | 0.49 | 0.973 | 1.03 | 1.04 | 0.943 | 0.834
EKVX | 0.477 | 0.367 | 0.346 |  | 0.445 | 0.757 | 0.73 | 0.848 | 0.735 | 0.932 | 0.415 | 0.384 | 0.379 | 0.32 | 0.309 | 0.748 | 0.675 | 0.753 |  | 0.779
NCI-H520 | 0.423 | 0.432 | 0.403 |  | 0.452 | 0.742 | 0.784 | 0.874 | 0.874 | 0.439 | 0.784 | 0.583 | 0.582 | 0.582 | 0.593 | 0.795 | 0.626 | 0.777 | 0.588 | 0.798
NCI-H2342 | 0.467 | 0.428 | 0.571 | 0.333 | 0.398 | 1.14 | 1.11 | 1.15 | 1.03 | 0.861 | 0.748 | 0.906 | 0.826 | 0.503 | 0.511 | 1.16 | 0.95 | 0.945 | 0.528 | 0.607
